The assay has as its target S. pneumoniae Topoisomerase IV ATPase (ParE) (Streptococcus pneumoniae serotype 4, UniProt Q59961). In words: S. pneumoniae Topoisomerase IV ATPase inhibition. In kind it is biochemical. Particulars: values marked * are an average of two or more data points, read-out: % Inh (13 μM) of S. pneumoniae Topoisomerase IV ATPase. A digest of the protocol:
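Malachite green/ammonium molybdate phosphate detection, A650. 1.25 nM ParE, 160 μM ATP, sheared salmon sperm DNA 5 μg/ml, 20 mM Tris pH 8.0, 8.0 mM MgCl2. Controls: 2% DMSO = 0%, 20 μM EDTA = 100% inhibition; IC50 over 10 concentrations.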
Chain of S. pneumoniae Topoisomerase IV ATPase (ParE) (Q59961 whole entry): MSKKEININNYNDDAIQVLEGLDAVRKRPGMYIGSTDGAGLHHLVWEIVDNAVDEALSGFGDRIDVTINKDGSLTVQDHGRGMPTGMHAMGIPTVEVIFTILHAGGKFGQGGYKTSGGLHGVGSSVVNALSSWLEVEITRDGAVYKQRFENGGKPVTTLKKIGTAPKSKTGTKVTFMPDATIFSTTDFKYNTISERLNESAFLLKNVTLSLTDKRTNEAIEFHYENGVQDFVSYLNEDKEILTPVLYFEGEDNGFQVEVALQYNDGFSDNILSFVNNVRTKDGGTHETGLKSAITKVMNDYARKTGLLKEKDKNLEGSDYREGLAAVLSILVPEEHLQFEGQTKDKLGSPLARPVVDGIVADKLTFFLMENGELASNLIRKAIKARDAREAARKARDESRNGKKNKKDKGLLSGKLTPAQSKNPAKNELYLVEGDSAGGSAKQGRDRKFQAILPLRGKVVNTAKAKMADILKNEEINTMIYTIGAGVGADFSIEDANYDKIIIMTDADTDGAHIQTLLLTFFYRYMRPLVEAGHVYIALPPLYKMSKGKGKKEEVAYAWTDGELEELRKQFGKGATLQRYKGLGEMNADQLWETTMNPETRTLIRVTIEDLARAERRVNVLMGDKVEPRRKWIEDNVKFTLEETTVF
For `COCCCNc1nc(Nc2ccc(F)c(Cl)c2)ncc1-c1nc(-c2ccc(C#N)cc2)cs1` [Example 498, 4-(2-{2-[(3-chloro-4-fluorophenyl)amino]-4-[(3-methoxypropyl)amino]pyrimidin-5-yl}-1,3-thiazol-4-yl)benzonitrile], the inhibition at 13 µM is 41%.

Turning to `O=C(O)c1cncc(-c2cnc(Nc3ccc(F)c(Cl)c3)nc2-n2cc(-c3ccccn3)cn2)c1` [Example 535], the inhibition at 13 µM came to 100%.

As for `Fc1ccc(Nc2ncc(-c3cncnc3)c(NCCOc3ccccc3)n2)cc1Cl` [Example 55, N^2-(3-chloro-4-fluorophenyl)-N^4-(2-phenoxyethyl)-5-pyrimidin-5-ylpyrimidine-2,4-diamine], the inhibition at 13 µM came out at 44.4%.

`Cc1cc(C(F)(F)F)nn1-c1nc(Nc2ccc(F)c(Cl)c2)ncc1-c1cccc(/C=C/C(=O)O)c1` [Example 322, (2E)-3-(3-{2-[(3-chloro-4-fluorophenyl)amino]-4-[5-methyl-3-(trifluoromethyl)-1H-pyrazol-1-yl]pyrimidin-5-yl}phenyl)prop-2-enoic acid]: the inhibition at 13 µM is 75%.

As for `CCOC(=O)/C=C/c1cccc(-c2cnc(Nc3ccc(F)c(Cl)c3)nc2N[C@@H]2CCOC2)c1` [Example 169, (R,E)-ethyl 3-(3-(2-(3-chloro-4-fluorophenylamino)-4-(tetrahydrofuran-3-ylamino)pyrimidin-5-yl)phenyl)acrylate], the inhibition at 13 µM came to 34.2%.

In the case of `O=C(O)c1cncc(-c2cnc(Nc3ccc(F)c([N+](=O)[O-])c3)nc2N2CCOCC2)c1` [Example 436], the inhibition at 13 µM worked out at 69%.

Consider `Cc1cc(Nc2ncc(-c3cccc(/C=C/C(=O)O)c3)c(N3CCOCC3)n2)ccc1F` [Example 450], for which the inhibition at 13 µM turned out to be 86%.

As to `O=C(O)c1cncc(-c2cnc(Nc3ccc(F)c(Cl)c3)nc2N2CCC(N3CCOCC3)CC2)c1` [Example 246, 5-[2-[(3-chloro-4-fluorophenyl)amino]-4-(4-morpholin-4-ylpiperidin-1-yl)pyrimidin-5-yl]pyridine-3-carboxylic acid], the inhibition at 13 µM is 74.9%.

Regarding `Cc1cc(C(F)(F)F)nn1-c1nc(Nc2ccc(F)c(Cl)c2)ncc1-c1cnc(OCCn2ccnc2)c(C(=O)O)c1` [Example 795, 5-{2-[(3-chloro-4-fluorophenyl)amino]-4-[5-methyl-3-(trifluoromethyl)-1H-pyrazol-1-yl]pyrimidin-5-yl}-2-[2-(1H-imidazol-1-yl)ethoxy]pyridine-3-carboxylic acid], the inhibition at 13 µM was 100%.

`CS(=O)(=O)c1cc(Nc2ncc(-c3cccc(/C=C/C(=O)O)c3)c(-n3ccc(C(F)(F)F)n3)n2)ccc1F` [Example 1115, (E)-3-(3-(2-(4-fluoro-3-(methylsulfonyl)phenylamino)-4-(3-(trifluoromethyl)-1H-pyrazol-1-yl)pyrimidin-5-yl)phenyl)acrylic acid]: the inhibition at 13 µM was found to be 93%.

`CCOC(=O)c1cncc(-c2cnc(Nc3ccc(F)c(Cl)c3)nc2N2CCC2)c1` [Example 126, ethyl 5-[4-(azetidin-1-yl)-2-[(3-chloro-4-fluorophenyl)amino]pyrimidin-5-yl]pyridine-3-carboxylate]: the inhibition at 13 µM was 35.7%.

Take `COc1cc(C)cc(Nc2ncc(-c3cnc(OC)c(C(=O)O)c3)c(-n3nc(C(F)(F)F)cc3C)n2)c1` [Example 761, 2-methoxy-5-{2-[(3-methoxy-5-methylphenyl)amino]-4-[5-methyl-3-(trifluoromethyl)-1H-pyrazol-1-yl]pyrimidin-5-yl}pyridine-3-carboxylic acid]: the inhibition at 13 µM was found to be 100%.

`Cc1cc(C(F)(F)F)nn1-c1nc(Nc2cc(Cl)cc(C#N)c2)ncc1-c1cncc(C(=O)O)c1` [Example 1123, 5-(2-(3-chloro-5-cyanophenylamino)-4-(5-methyl-3-(trifluoromethyl)-1H-pyrazol-1-yl)pyrimidin-5-yl)nicotinic acid]: the inhibition at 13 µM was found to be 100%.

For `COC(=O)c1cc2ccc(-c3cnc(Nc4ccc(F)c(Cl)c4)nc3N3CCOCC3)cc2[nH]1` [Example 1053, Methyl 6-(2-(3-chloro-4-fluorophenylamino)-4-morpholinopyrimidin-5-yl)-1H-indole-2-carboxylate], the inhibition at 13 µM was 0%.

On to `CONC(=O)c1cc(-c2cnc(Nc3ccc(F)c(Cl)c3)nc2-n2nc(C(F)(F)F)cc2C)cnc1OC` [Example 1102, 5-(2-(3-chloro-4-fluorophenylamino)-4-(5-methyl-3-(trifluoromethyl)-1H-pyrazol-1-yl)pyrimidin-5-yl)-N,2-dimethoxynicotinamide], for which the inhibition at 13 µM worked out at 96%.

For `CONC(=O)c1cncc(-c2cnc(Nc3ccc(F)c(Cl)c3)nc2-n2nc(C(F)F)cc2C)c1` [Example 546, 5-{2-[(3-chloro-4-fluorophenyl)amino]-4-[3-(difluoromethyl)-5-methyl-1H-pyrazol-1-yl]pyrimidin-5-yl}-N-methoxypyridine-3-carboxamide], the inhibition at 13 µM amounted to 100%.

`COc1cc(Nc2ncc(-c3cnc(OC)c(C(=O)NS(=O)(=O)c4ccc(CNC(C)=O)cc4)c3)c(-n3nc(C(F)(F)F)cc3C)n2)cc(OC)c1` [Example 846, N-({4-[(acetylamino)methyl]phenyl}sulfonyl)-5-{2-[(3,5-dimethoxyphenyl)amino]-4-[5-methyl-3-(trifluoromethyl)-1H-pyrazol-1-yl]pyrimidin-5-yl}-2-methoxypyridine-3-carboxamide]: the inhibition at 13 µM was 97%.

For the molecule `O=C(O)c1cncc(-c2cnc(Nc3ccc4c(c3)CCC4)nc2-n2ccc(C(F)(F)F)n2)c1` [Example 668, 5-{2-(2,3-dihydro-1H-inden-5-ylamino)-4-[3-(trifluoromethyl)-1H-pyrazol-1-yl]pyrimidin-5-yl}pyridine-3-carboxylic acid], the inhibition at 13 µM stood at 85%.

Take `CN(C)CCCNc1nc(Nc2ccc(F)c(Cl)c2)ncc1-c1cncnc1` [Example 32, N^2-(3-chloro-4-fluorophenyl)-N^4-[3-(dimethylamino)propyl]-5,5′-bipyrimidine-2,4-diamine]: the inhibition at 13 µM was determined as 91.1%.

In the case of `Cc1cc(C(F)(F)F)nn1-c1nc(Nc2ccc(F)c(Cl)c2)ncc1-c1cncc(C(=O)NCCO)c1` [Example 927, 5-(2-(3-chloro-4-fluorophenylamino)-4-(5-methyl-3-(trifluoromethyl)-1H-pyrazol-1-yl)pyrimidin-5-yl)-N-(2-hydroxyethyl)nicotinamide], the inhibition at 13 µM was 98%.

As for `COc1cc(Nc2ncc(-c3cnc(-n4cccn4)c(C(=O)O)c3)c(-n3ccc(C(F)(F)F)n3)n2)cc(OC)c1` [Example 589, 5-(2-(3,5-dimethoxyphenylamino)-4-(3-(trifluoromethyl)-1H-pyrazol-1-yl)pyrimidin-5-yl)-2-(1H-pyrazol-1-yl)nicotinic acid], the inhibition at 13 µM was determined as 100%.

`CONC(=O)c1cncc(-c2cnc(Nc3ccc(F)c(Cl)c3)nc2-n2ccc(-c3ccsc3)n2)c1` [Example 548, 5-{2-[(3-chloro-4-fluorophenyl)amino]-4-[3-(thiophen-3-yl)-1H-pyrazol-1-yl]pyrimidin-5-yl}-N-methoxypyridine-3-carboxamide]: the inhibition at 13 µM came out at 95%.

On to `CONC(=O)c1cncc(-c2cnc(Nc3ccc(F)c(Cl)c3)nc2-n2nc(C(F)F)cc2C(F)F)c1` [Example 547, 5-{4-[3,5-bis(difluoromethyl)-1H-pyrazol-1-yl]-2-[(3-chloro-4-fluorophenyl)amino]pyrimidin-5-yl}-N-methoxypyridine-3-carboxamide], for which the inhibition at 13 µM is 71%.

For `CCOC(=O)c1sc(-c2cnc(Nc3ccc(F)c(Cl)c3)nc2NCCCOC)nc1-c1ccccn1` [Example 507, ethyl 2-{2-[(3-chloro-4-fluorophenyl)amino]-4-[(3-methoxypropyl)amino]pyrimidin-5-yl}-4-(pyridin-2-yl)-1,3-thiazole-5-carboxylate], the inhibition at 13 µM came out at 74%.

`COc1cc(Nc2ncc(-c3cnc(SC)c(C(=O)O)c3)c(-n3nc(C(F)(F)F)cc3C)n2)cc(OC)c1` [Example 854, 5-{2-[(3,5-dimethoxyphenyl)amino]-4-[5-methyl-3-(trifluoromethyl)-1H-pyrazol-1-yl]pyrimidin-5-yl}-2-(methylsulfanyl)pyridine-3-carboxylic acid]: the inhibition at 13 µM was 100%.

With `O=C(O)c1cncc(-c2cnc(Nc3ccc(F)c(Cl)c3)nc2NCCCN2CCS(=O)(=O)CC2)c1` [Example 232, 5-{2-(3-Chloro-4-fluoro-phenylamino)-4-[3-(1,1-dioxo-1λ^6-thiomorpholin-4-yl)-propylamino]-pyrimidin-5-yl}-nicotinic acid], the inhibition at 13 µM is 81%.

In the case of `O=C(O)c1cncc(-c2cnc(Nc3ccc(F)c(Cl)c3)nc2N2CCCC(CO)C2)c1` (stereo not drawn) [Example 245, 5-[2-[(3-chloro-4-fluorophenyl)amino]-4-[3-(hydroxymethyl)piper-idin-1-yl]pyrimidin-5-yl]pyridine-3-carboxylic acid], the inhibition at 13 µM turned out to be 83.1%.

Regarding `O=C(O)/C=C/c1cccc(-c2cnc(Nc3ccc(F)c(Cl)c3)nc2-n2ccnc2)c1` [Example 359, (E)-3-(3-(2-(3-chloro-4-fluorophenylamino)-4-(1H-imidazol-1-yl)pyrimidin-5-yl)phenyl)acrylic acid], the inhibition at 13 µM came to 86.1%.

For `COc1cc(Nc2ncc(-c3cnc(OCCN4CCOCC4)c(C(=O)O)c3)c(-n3nc(C(F)(F)F)cc3C)n2)cc(OC)c1` [Example 1136, 5-(2-(3,5-dimethoxyphenylamino)-4-(5-methyl-3-(trifluoromethyl)-1H-pyrazol-1-yl)pyrimidin-5-yl)-2-(2-morpholinoethoxy)nicotinic acid], the inhibition at 13 µM came out at 99%.

In the case of `COc1ncc(-c2cnc(Nc3ccc(F)c(Cl)c3)nc2-n2ccc(C(F)(F)F)n2)cc1CO` [Example 1027, (5-(2-(3-chloro-4-fluorophenylamino)-4-(3-(trifluoromethyl)-1H-pyrazol-1-yl)pryimidin-5-yl)-2-methoxypyridin-3yl)methanol], the inhibition at 13 µM stood at 94%.

Source of the values: patent US20100137313A1 (ASTRAZENECA AB, priority 2008, published 2010).
